Results: PubChem BioAssay (NCI)
Where “and” joins values, the source holds several entries; their conditions need not be identical. Equal values may be shown once.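 A five-concentration, 48-hour dose response in 96-well plates underlies each endpoint, interpolated linearly between surrounding concentrations. Here, GI50 denotes the concentration required for 50% inhibition of growth. Definition used: TGI = concentration required for complete inhibition of growth.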

How the values were obtained:
Experiment in all cases: NCI tumour cell line growth inhibition, 48 h
[1] = system: A498 renal
[2] = system: 786-0 renal
[3] = system: MDA-MB-231 breast
[4] = system: EKVX NSCLC
[5] = system: IGROV1 ovarian
[6] = system: MCF7 breast
[7] = system: RXF 393 renal
[8] = system: SNB-75 CNS
[9] = system: MALME-3M melanoma
[10] = system: HCC-2998 colon

Structure (SMILES)	GI50 [1]	TGI [1]	GI50 [2]	TGI [2]	GI50 [3]	TGI [3]	GI50 [4]	TGI [4]	GI50 [5]	TGI [5]	GI50 [6]	TGI [6]	GI50 [7]	TGI [7]	GI50 [8]	TGI [8]	GI50 [9]	TGI [9]	GI50 [10]	TGI [10]
COC(=O)c1ccc(NC(=O)c2ccc(NC3=C(Cl)C(=O)N(Cc4ccccc4)C3=O)cc2)cc1	28.4 µM	58.6 µM	10.9 µM	22.9 µM	19.7 µM	34.7 µM	45.4 µM	> 100 µM	1.53 µM	11.2 µM	7.16 µM	41.3 µM	22.9 µM	48.3 µM	28.8 µM	64.4 µM				
C(=C\c1ccncc1)/c1ccncc1	10 µM	> 100 µM	> 100 µM	> 100 µM	> 100 µM	> 100 µM	> 100 µM	> 100 µM	> 100 µM	> 100 µM	> 100 µM	> 100 µM	> 100 µM	> 100 µM	> 100 µM	> 100 µM	> 100 µM	> 100 µM		
CN(C)CC1C(=O)O[C@H]2[C@H]1CC/C(COC(=O)NCc1ccc(Cn3c(=O)sn(CCCI)c3=O)cc1)=C\CC[C@@]1(C)O[C@@H]21 (some centres not stated)	7.02 µM	13.6 µM	1.1 µM	2.43 µM	0.906 µM	1.8 µM	3.19 µM	10.3 µM	0.922 µM	1.97 µM			0.889 µM	1.71 µM	2.73 µM	9.51 µM	0.836 µM	1.69 µM	7.56 µM	15.4 µM
C=C(C)C1CCC2=CC(CC3(C)OC3C3=CC(C(=O)OC)=C(C1)O3)OC2=O (configuration not stated)		> 100 µM		> 100 µM		> 100 µM		> 100 µM		> 100 µM		> 100 µM		> 100 µM		> 100 µM		> 100 µM		
COc1cccc2c(SCC(=O)Nc3ccccc3-c3ccccc3NC(=O)CSc3c4ccccc4nc4c(OC)cccc34)c3ccccc3nc12				> 100 µM				95 µM		> 100 µM				> 100 µM		44.5 µM				> 100 µM
CCCS(=O)c1nc(COC(=O)NC)c(COC(=O)NC)n1C (configuration not stated)		> 100 µM		> 100 µM				> 100 µM		> 100 µM		> 100 µM		> 100 µM		> 100 µM		> 100 µM		> 100 µM
O=C1C(Cl)=C(Cl)C(=O)N1c1cccc(C(F)(F)F)c1		> 100 µM		> 100 µM				> 100 µM		> 100 µM				70 µM		> 100 µM		> 100 µM		> 100 µM
COc1cc([C@@H]2OC(=O)C3C2C(=O)O[C@H]3c2ccc(O)c(OC)c2)ccc1O (some centres not stated)		> 100 µM		> 100 µM						> 100 µM				> 100 µM		> 100 µM		> 100 µM		> 100 µM
CCn1cc(C(=O)N/N=C/c2cccs2)c(=O)c2cc(F)c(N3CCNC(C)C3)c(F)c21 (configuration not stated)	3.64 µM	21.1 µM	1.8 µM	3.38 µM	1.52 µM	2.85 µM	1.47 µM	2.93 µM					1.47 µM	3 µM	1.47 µM	2.83 µM			1.8 µM	3.44 µM
CC(=O)[CH-]C(=O)c1ccccc1.CC(=O)[CH-]C(=O)c1ccccc1.CC[C@H](/C=C/C(C)[C@H]1CCC2[C@@H]3CC=C4C[C@@H]([O-])CC[C@]4(C)C3CC[C@@]21C)C(C)C.CC[C@H](/C=C/C(C)[C@H]1CCC2[C@@H]3CC=C4C[C@@H]([O-])CC[C@]4(C)C3CC[C@@]21C)C(C)C.Cl.[Ti+4] (some centres not stated)	> 25 µM	> 25 µM	23 µM	> 25 µM			> 25 µM	> 25 µM	> 25 µM	> 25 µM			> 25 µM	> 25 µM			10.5 µM	> 25 µM	> 25 µM	> 25 µM
CN(C)N=Nc1cccc(C(N)=O)c1		> 100 µM		> 100 µM				> 100 µM		> 100 µM				> 100 µM		> 100 µM		> 100 µM		> 100 µM
COc1cc2c3c(n([C@@H]4CCOC4)c(=O)c2cc1OC)-c1cc2c(cc1C3=O)OCO2			< 0.01 µM	0.0183 µM					0.0537 µM	> 100 µM	< 0.01 µM	> 100 µM								
O=C1NC2C3CC(OCc4ccccc4)(OCc4ccccc4)C2OC3O1 (configuration not stated)		> 50 µM		> 50 µM						> 50 µM						> 50 µM		> 50 µM		> 50 µM
Nn1c(-c2cccc(Cl)c2)nc2ccccc2c1=O		> 100 µM		> 100 µM				> 100 µM		> 100 µM						> 100 µM		> 100 µM		> 100 µM
O=C(O)/C(Cl)=C(Cl)/C=N/NC(=O)c1cc2ccccc2cc1O		> 100 µM		> 100 µM				> 100 µM		> 100 µM						> 100 µM		> 100 µM		
COC(=O)c1ccc(C(=O)OC)c2nc3cc(Cl)ccc3nc12		> 100 µM		> 100 µM				> 100 µM		> 100 µM						> 100 µM		> 100 µM		> 100 µM
Cc1ccc(C2[C@H]3C(=O)N(c4ccc(Cc5ccc(N6C(=O)[C@@H]7ON(c8ccccc8)C(c8ccc(C)cc8)[C@@H]7C6=O)cc5)cc4)C(=O)[C@H]3ON2c2ccccc2)cc1 (some centres not stated)		> 100 µM		> 100 µM						> 100 µM				> 100 µM		> 100 µM		> 100 µM		> 100 µM
CC(C)N1C(C)[C@@H](c2ccccc2)O[P@@]1(=O)CC1=CCCCC1 (some centres not stated)		> 100 µM		> 100 µM				> 100 µM		> 100 µM				> 100 µM		> 100 µM		> 100 µM		> 100 µM
CN(CCCN1C(=O)c2cccc3cc([N+](=O)[O-])cc(c23)C1=O)CCN(C)CCCN1C(=O)c2cccc3cc([N+](=O)[O-])cc(c23)C1=O		> 39.3 µM		> 39.3 µM				> 39.3 µM		> 39.3 µM				> 39.3 µM		> 39.3 µM		> 39.3 µM		> 39.3 µM
O=[N+]([O-])c1ccc(C2SCc3nc4ccccc4n32)cc1 (configuration not stated)		> 100 µM		> 100 µM				> 100 µM		60.2 µM				> 100 µM				> 100 µM		

Structure (SMILES)	GI50 [1]	TGI [1]	GI50 [2]	TGI [2]	GI50 [3]	TGI [3]	GI50 [4]	TGI [4]	GI50 [5]	TGI [5]	GI50 [6]	TGI [6]	GI50 [7]	TGI [7]	GI50 [8]	TGI [8]	GI50 [9]	TGI [9]	GI50 [10]	TGI [10]
C[C@]12CC(C=O)C(=O)C(O)=C1CC[C@@H]1C2CC[C@@]2(C)C1CC[C@]2(C)O (some centres not stated)		45.9 µM		44.4 µM				96 µM		47.5 µM				37.3 µM		45.9 µM		22 µM		31.1 µM
Cc1cc(-c2nc3n(c2/C=N/N=C(N)N)CCS3)c(C)s1	18.5 µM	33.6 µM	17.1 µM	30.8 µM	13.4 µM	27.1 µM	15.2 µM	34.6 µM							29.9 µM	48.8 µM				
C=CCC(N[C@H](CO)c1ccccc1)c1ccccn1 (some centres not stated)	> 100 µM	> 100 µM	> 100 µM	> 100 µM	> 100 µM	> 100 µM	> 100 µM	> 100 µM	88.2 µM	> 100 µM			> 100 µM	> 100 µM	> 100 µM	> 100 µM	> 100 µM	> 100 µM	> 100 µM	> 100 µM
COc1ccc2c(CCCc3ccc(Cl)cc3Cl)c3[n+](cc2c1OC)CCc1cc2c(cc1-3)OCO2	1.76 µM	9 µM	1.27 µM	2.74 µM			0.467 µM	1.99 µM											0.638 µM	1.95 µM
COc1cc2c3cc1Oc1c(OC)c(OC)cc4c1[C@@H](Cc1ccc(O)c(c1)Oc1ccc(cc1)C[C@@H]3N(C)CC2)N(C)CC4		38.5 µM		25.6 µM				31.3 µM		36.9 µM				25.9 µM		23.2 µM		31.7 µM		20.4 µM
COC(=O)C(=O)C(C(C)=O)C(=O)NCc1ccccc1 (configuration not stated)		> 100 µM		> 100 µM				> 100 µM		> 100 µM				> 100 µM		> 100 µM		> 100 µM		> 100 µM
CCCCCN(CCCCC)C(=O)[C@H](CCC(=O)O)NC(=O)c1cc2ccccc2[nH]1		> 100 µM		> 100 µM				> 100 µM		> 100 µM				93.5 µM		98.4 µM		> 100 µM		> 100 µM
COc1cc(C2c3cc4c(cc3[C@@H](Nc3ccc([N+](=O)[O-])cc3)C3COC(=O)[C@H]23)OCO4)cc(OC)c1O (some centres not stated)	0.536 µM	4.8 µM	0.377 µM	3.35 µM				17.2 µM		24.3 µM		> 43.1 µM		6.93 µM	0.333 µM	0.836 µM and 7.83 µM	0.943 µM	10.5 µM		7.01 µM
COC(=O)C12C34C=CC5(CCC6(C=CC1(CC3)O6)C52C(=O)OC)O4 (configuration not stated)		> 100 µM		> 100 µM				> 100 µM		> 100 µM				> 100 µM				> 100 µM		> 100 µM
Cc1ccc(-c2c3c(nn2-c2ccc(S(=O)(=O)NC(=O)NC4CCCCC4)cc2)-c2ccccc2C3)cc1		20 µM	2.29 µM	13.8 µM	21 µM	43.2 µM	11.8 µM	25.4 µM	12.9 µM	27.9 µM	5.88 µM	37.3 µM	23.3 µM	63.1 µM	20.4 µM	45.5 µM				
CCC[CH2][Sn]([CH2]CCC)([O]C(=O)c1cc(F)ccc1F)[O]C(=O)c1cc(F)ccc1F	1.25 µM	2.57 µM	1.15 µM	2.37 µM			1.26 µM	2.51 µM	1.63 µM	3.18 µM			0.326 µM	1.12 µM	1.13 µM	2.49 µM	0.703 µM	2.1 µM	1.43 µM	2.76 µM
C=C1C(=O)O[C@H]2[C@H]1CC/C(COC(=O)CCCCCCCC(=O)OC/C1=C/CC[C@@]3(C)O[C@H]3[C@H]3OC(=O)C(=C)[C@@H]3CC1)=C\CC[C@@]1(C)O[C@@H]21	12.3 µM	28.7 µM	1.68 µM	3.63 µM	1.98 µM	4.61 µM	2.55 µM	8.87 µM	2.22 µM	5.92 µM			1.43 µM	2.88 µM	12.3 µM	35.9 µM	2.17 µM	5.3 µM	1.9 µM	3.88 µM
O=C(COC(=O)c1cccc2c(=O)c3ccccc3[nH]c12)Nc1ccc(Cl)cc1		60 µM		> 100 µM				> 100 µM		> 100 µM				66 µM		78.6 µM		> 100 µM		> 100 µM
CCCCCCCCC(C)CCCCCCCCC(=O)OCC(COP(=O)([O-])OCC[N+](C)(C)C)OC(=O)CCCCCCCCC(C)CCCCCCCC (configuration not stated)		> 100 µM		> 100 µM				> 100 µM		> 100 µM				> 100 µM		> 100 µM		> 100 µM		> 100 µM
C[C@]12Cc3conc3C(O)=C1CC[C@@H]1C2CC[C@@]2(C)C1CC[C@]2(C)O (some centres not stated)		51.9 µM		> 100 µM				87.6 µM		62.2 µM				44 µM		32.4 µM		59.2 µM		62.1 µM
Cc1ccc(C)c(NC(=O)C(=O)C2C(=O)N(c3ccccc3)N=C2N)c1 (configuration not stated)		> 100 µM		> 100 µM				> 100 µM		> 100 µM				> 100 µM		> 100 µM		> 100 µM		> 100 µM
O=C1NC2(CCCCC2)C2CCCCC=C12 (configuration not stated)		> 100 µM		> 100 µM				> 100 µM		> 100 µM				> 100 µM		> 100 µM		> 100 µM		
CCOC(=O)/C(C#N)=C\Sc1ccccc1				29.1 µM				> 100 µM		23.2 µM				35.1 µM		53.9 µM				
Cn1c2c(c3ccccc3c1=O)C(=O)c1ccccc1-2		> 100 µM		> 100 µM		> 100 µM		> 100 µM		> 100 µM		> 100 µM				> 100 µM		> 100 µM		
